Experimental data: US12044680B2, “Peptide exchange system and method” (priority 2016, dated 2024)
Read-outs that look alike come from different tables or passages of the source. One block for each substance: values may come before it. Ends that are not written are not given here. * marks the point of attachment. DNP = dinitrophenol (DNP) tag on lysine, O=[N+]([O-])c1ccc(*)c([N+](=O)[O-])c1; Dnp = O=[N+]([O-])c1ccc(*)c([N+](=O)[O-])c1

Legend:
[1] = target: T1, HLA-A*02:01 tetramers with exiting peptide ILKEKK(DNP)VHGV (Homo sapiens, UniProt P04439, D140Y/D185E/D98H/E176V/E277Q/G131W/G231S/I119V/I121R/I166T/I218V/L300P/L318F/N151K/N90K/P208A/P217A/Q86G/Q94H/R138H/R169H/T345S); experiment: HLA-A*02:01 peptide exchange quantitation; assay type: binding; settings: entering peptide 20 μM final, 4 hours; HLA-A*02:01 tetramer
T1 construct: prepared as known in the art, for instance by deletion of the transmembrane domain and the cytoplasmic domain; made in house
Experimental: Peptide Exchange Procedure: 50 μL of the tetramer solution is combined with 1 μL of peptide exchange factor, such as glycyl methionine, (resulting in a final peptide exchange factor concentration of 5-20 mM) and 1 μL of the peptide solution and the resulting solution was mixed, then incubated at room temperature for four hours.
Sandwich magnetic bead immunoassay: 20 μL capture beads is pipetted into wells 1-4 on a 96-well plate. 5 μL assay buffer is pipetted into well 2. 5 μL of exchanged tetramer is pipetted into well 4. Additional exchanged tetramers may be pipetted into wells 5 and up. The plate is protected from light and shaken for 45 min at 550 rpms/min. 150 μL of assay buffer is dispensed into each well. The plate is placed on a plate magnet and the beads are permitted to sediment for at least 5 minutes.
Separately, a preparation of the FITC-conjugated anti-tag antibody is prepared at 10 μg/mL. 25 μL of the FITC-conjugated anti-tag antibody is pipetted into each well except well 1, and the plate is again protected from light and shaken for 45 min at 550 rpms/min.
150 μL of assay buffer is dispensed into each well, and the plate is placed on a plate magnet. The beads are permitted to sediment for at least 5 minutes. The beads are resuspended in sheath fluid and transferred to labeled flow cytometer tubes (referred to herein by the number of the well they are drawn from), which are then analyzed on a flow cytometer.
Flow Cytometry Analysis: Unused magnetic beads are used to set FSC (forward-scattered light) and SSC (side-scattered light) voltages and gains such that a live gate selects single beads and excludes doublets and larger clumps, see FIG. 1A. […] Tube 1 is run to perform compensation in FL1 in order to eliminate fluorochrome interference in the FITC channel, see FIG. 1C. The FL1 MFI is set to the first log decade, close to that obtained with beads only. Tube 2, which contains beads that have captured no tetramer and therefore no tagged peptide, is run to calibrate the level for 0% tagged peptide, i.e. 100% peptide exchange (see FIG. 1D). In the exemplary data provided here, the MFI is 0.287. Tube 3, which contains a solution where all tetramers display the original tagged peptide, is run to calibrate the level for 100% tagged peptide, i.e. 0% peptide exchange (see FIG. 1E). In the exemplary data provided here, the MFI is 20.4. Tubes 4 and up are run to evaluate the samples. Peptide exchanged tetramers will display various quantities of tagged peptides, depending on their binding affinities to HLA-A*02:01 molecules. Therefore, the FL1 MFI measured will be intermediary between MFI values obtained with tubes 2 and 3. See FIG. 1F, where in the exemplary data provided here, the MFI is 9.37.
(§1) Peptide exchange data were obtained after incubating peptides (20 μM final) with tetramer for 4 hours, then followed by capture with anti HLA-ABC beads and staining with an anti-DNP FITC antibody.

[2] = target: T2, HLA-A*24:02 tetramers with exiting peptide TFQRK(DNP)PAAF (Homo sapiens, UniProt P04439, D101N/D140Y/D185E/E176V/E190D/F33S/G103R/G107R/I119L/I121M/I306V/K335N/L105A/L180Q/L300P/N151K/N90K/Q86E/Q94H/R106L/R138H/R89G/T104I/T345S/V100E/W191G/Y123F); experiment: HLA-A*24:02 peptide exchange quantitation; assay type: binding; settings: competing peptide 20 μM final, 4 hours; HLA-A*24:02 tetramer
T2 construct: prepared as known in the art, for instance by deletion of the transmembrane domain and the cytoplasmic domain; made in house
Experimental: as §1

[3] = target: T3, H-2 Kb tetramers (Mus musculus, UniProt P01901); experiment: Selection of exiting peptide: peptide exchange on H-2 Kb tetramers with competing peptides; assay type: binding, murine; settings: H-2 Kb tetramers 280 μg/mL; competing peptides 10 μg/mL
T3 construct: prepared as known in the art, for instance by deletion of the transmembrane domain and the cytoplasmic domain; made in house
T3 sequence (P01901 22-305 limits assumed): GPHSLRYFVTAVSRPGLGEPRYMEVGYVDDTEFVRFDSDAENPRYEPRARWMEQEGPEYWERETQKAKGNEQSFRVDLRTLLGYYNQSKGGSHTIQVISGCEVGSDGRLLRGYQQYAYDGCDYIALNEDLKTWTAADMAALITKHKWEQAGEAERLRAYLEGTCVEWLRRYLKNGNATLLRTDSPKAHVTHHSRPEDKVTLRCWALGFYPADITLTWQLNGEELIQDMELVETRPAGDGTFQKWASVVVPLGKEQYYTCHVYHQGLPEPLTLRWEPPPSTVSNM
Experimental: Peptide exchange was performed using two H-2 Kb tetramers at 280 jig/mL that were made with peptides MTYK(DNP)FPVT (SEQ ID NO: 1) and YTVK(DNP)FALV (SEQ ID NO: 2). Exchange was performed in the presence of competing peptides at 10 μg/mL. Tetramers were captured with beads conjugated with an anti H-2 Kb specific antibody. Detection was performed with a FITC-conjugated anti-DNP antibody at 10 μg/mL. The results are depicted in FIG. 6, where the exiting peptides are labeled as follows: […]

[4] = target: H-2 Kb tetramers (PE, APC or BV421) with exiting peptide TFQRK(DNP)PAAF (Mus musculus, UniProt P01901); settings: glycyl-methionine, 4 hours room temperature; for Exchange rate, APC: H-2 Kb APC tetramer; for Exchange rate, BV421: H-2 Kb BV421 tetramer; for Exchange rate, PE: H-2 Kb PE tetramer
Experimental: The mixtures were incubated for 4 hours at room temperature, protected from light.
20 μL of magnetic capture beads were added to wells of a v-bottom 96-well plate for each tested peptide plus wells for control samples. Each test well received 5 μL from the peptide exchange samples. The plate was shaken for 45 minutes at 550 rpm, room temperature, protected from light. After bead rinse, wells received 25 μL of 1× exiting peptide antibody. The plate was shaken for 45 minutes at 550 rpm, room temperature, protected from light. Beads were rinsed, resuspended in 1× assay buffer and run on a FC500 Flow Cytometer. Single beads were gated on FSC vs. SSC and MFI were measured on 500 events per test. Peptide exchange rate was calculated using a calibration curve generated with MFI values from controls.

[5] = target: T4, HLA-A*02:01 tetramers (Homo sapiens, UniProt P04439, D140Y/D185E/D98H/E176V/E277Q/G131W/G231S/I119V/I121R/I166T/I218V/L300P/L318F/N151K/N90K/P208A/P217A/Q86G/Q94H/R138H/R169H/T345S); experiment: Comparison of exiting peptides: peptide exchange on HLA-A*02:01 tetramers against […]; assay type: binding; settings: GM 10 mM; YLLEFTPPV at 10 and 1 μg/mL; compared with ILKEK(DNP)VHGV
T4 construct: prepared as known in the art, for instance by deletion of the transmembrane domain and the cytoplasmic domain; made in house
Experimental: Peptide exchange was performed using two HLA-A*02:01 tetramers at 280 μg/mL made with peptides ILKEKK(DNP)VHGV (SEQ ID NO: 3) and ILKEK(DNP)VHGV (SEQ ID NO: 4). […] Tetramers were captured with beads conjugated with an anti HLA-ABC specific antibody at 10 μg/mL.

[6] = target: T5, HLA-A*02:01 Tetramers containing exiting peptide ILKEKK(DNP)VHGV (Homo sapiens, UniProt P04439, D140Y/D185E/D98H/E176V/E277Q/G131W/G231S/I119V/I121R/I166T/I218V/L300P/L318F/N151K/N90K/P208A/P217A/Q86G/Q94H/R138H/R169H/T345S); experiment: Quantified peptide exchange assay of vaccine and individual peptide; assay type: binding
T5 construct: prepared as known in the art, for instance by deletion of the transmembrane domain and the cytoplasmic domain; made in house
Experimental: Quantified Peptide Exchange Assay: HLA-A*02:01 Tetramers were prepared containing exiting peptide ILKEKK(DNP)VHGV (SEQ ID NO: 3). Peptide exchange was performed against (a) the peptide prepared individually in a buffered solution or (b) in the DPX-Survivac vaccine prepared in an aqueous formulation. HLA-A*02:01 tetramer, and peptide exchange factor glycylmethionine were mixed with each peptide to be tested. Peptide exchange was then quantified by the flow cytometric sandwich immunoassay using magnetic capture beads.
Comparison of Peptide Exchange Assay to T2 HLA-A2 Shift assay: The peptide exchange assay described herein and the T2 HLA-A2 shift assay were conducted on various amounts of peptide per reaction. The results are presented in FIGS. 12D (T2 HLA-A2 shift assay) and 12E (peptide exchange assay), with the three independent repeats shown in diamonds, squares, and triangles. The T2 Shift assay provides a high degree of linearity when applied to the samples containing 10 μg/reaction to 110 μg/reaction of SurA2.M peptide.

Substance: ATVQGQNLK
% peptide exchange [1]: 27.9%

Substance: GLADQLIHL
% peptide exchange [1]: 91.4%
% peptide exchange [2]: 0.86%

Substance: RYMRWTYRF
% peptide exchange [2]: 101.29%

Substance: IRLRPGGKK
% peptide exchange [1]: 25.0%

Substance: RIKDFLRNL
% peptide exchange [1]: 34.0%

Substance: LNMADKKET
% peptide exchange [2]: 10.32%

Exchangeability of tetramers built with the exiting peptide [3]: not possible
Substance: YTVK(DNP)FALV

Substance: RVRAYTYSK
% peptide exchange [2]: 10.32%

Substance: ALLAVGATK
% peptide exchange [1]: 25.7%

Substance: SIYRYYGL [Reference Peptide]
Exchange rate, APC ([4]; Reference Peptide 2 μM): 97.08
Exchange rate, APC ([4]; Reference Peptide 20 μM): 99.13
Exchange rate, BV421 ([4]; Reference Peptide 2 μM): 90.56
Exchange rate, BV421 ([4]; Reference Peptide 20 μM): 97.34
Exchange rate, PE ([4]; Reference Peptide 2 μM): 92.72
Exchange rate, PE ([4]; Reference Peptide 20 μM): 100

Substance: GYSLKLSKL
% peptide exchange [2]: 37.93%

Substance: IYSTVASSL
% peptide exchange [2]: 100.98%

Substance: CSLWNGPHL
% peptide exchange [1]: 55.2%

Substance: CINGVCWTV
% peptide exchange [1]: 85.3%

Substance: MTYK(DNP)FPVT
Exchangeability of tetramers built with the exiting peptide [3]: allowed exchange with a wide range of peptides

Substance: FLYDDNQRV
% peptide exchange [1]: 91.2%

Substance: ILKEKK(Dnp)VHGV
Performance of the exiting peptide in peptide exchange [5]: performs better in peptide exchange

Substance: WMHKVPASL
% peptide exchange [1]: 87.9%

Substance: IMQLMPFGC
% peptide exchange [1]: 40.9%

Substance: AVLDGLLSL
% peptide exchange [1]: 90.7%

Substance: ALALEVGEL
% peptide exchange [1]: 85.1%

Substance: EYILSLEEL
% peptide exchange [1]: 24.2%

Substance: LTLGEFLKL
% peptide exchange [1]: 43.6%

Substance: SLPPPGTRV
% peptide exchange [1]: 86.6%

Substance: IMQIMPYGC
% peptide exchange [1]: 59.9%

Substance: FLSELTQQL
% peptide exchange [2]: 23.65%

Substance: YLLEFTPPV
% peptide exchange [1]: 91.9%

Substance: SYVPSAEQI
% peptide exchange [1]: 25.0%

Substance: ATDALMTGY
% peptide exchange [2]: 7.74%

Substance: RAHYNIVTF
% peptide exchange [2]: 85.58%

Substance: LMLGEFLKL [SurA2.M]
Peptide exchange rate, individually in buffered solution versus in the vaccine ([6]; three independent repeats, Student's t-test at p<0.05): not statistically distinguishable
Upper limit of quantification of the peptide exchange assay ([6]; various amounts of peptide per reaction): below 0.2 μg/reaction

Substance: GLAVVTHGL
% peptide exchange [1]: 91.0%

Substance: AMAPRTLLL
% peptide exchange [2]: 81.62%

Substance: WMHHNMDLI
% peptide exchange [1]: 89.2%
